{"source": "patent US20250041624A1", "about": "“METHOD FOR ENHANCING ACTIVITY OF PHOTOSENSITIZER BY MAGNETIC FIELD” (PEKING UNIVERSITY, priority 2021, published 2025)", "key": {"[1]": {"experiment": "Reaction rate of fluorescent probe SOSG with 1O2 generated by photosensitizer under light and magnetic field", "type": "physicochemical", "details": "for first derivative of the I525 nm−t curve (normalized): RB and SOSG 10 μmol/L in water, 561 nm LED 5 mW·cm−2, time 0", "protocol": "(1) The photosensitizer Rose Bengal (RB) (the purity >98%, available from Saen Chemical Technologies (Shanghai) Ltd. Co., branded as Energy Chemical) and singlet oxygen fluorescent probe (SOSG) are dissolved in water (SOSG available from ThermoFisher Scientific (China) Co., Ltd.). In the resulting solution, the photosensitizer and SOSG are both at a concentration of 10 μmol/L. In a magnetic field with certain strength, the solutions are exposed to a 561 nm LED lamp (light emitting diode) at a power of 5 mW·cm^−2 and tested for fluorescence spectra at 0, 15, 30, 45, 60, 90, 120 and 180 seconds of light exposure, respectively, resulting in emission intensity ([…]) versus time (t) curves. The above fluorescence spectroscopy test is performed at a magnetic field strength of 0, 10, 35, 85, 180, 300 mT, respectively (external magnetic field provided by a neodymium iron boron permanent magnet).\n(2) The photosensitizer chlorin e6 (Ce6, Chlorin e6) (available from Saen Chemical Technologies (Shanghai) Ltd. Co., branded as Energy Chemical) and singlet oxygen fluorescent probe (SOSG) are dissolved in water, both with a concentration of 10 μmol/L in the resulting solutions. In a magnetic field with certain strength, the solutions are exposed to a 640 nm LED lamp (light emitting diode) at a power of 5 mW·cm^−2 and tested for fluorescence spectra at 0, 15, 30, 45, 60, 90, 120 and 180 seconds of light exposure, respectively, resulting in emission intensity ([…]) versus time (t) curves. The above fluorescence spectra are tested at a magnetic field strength of 0, 10, 30, 70, 150, 250 mT, respectively.\nThe external magnetic field is supplied by Neodymium Iron Boron Permanent Magnet. Fluorescence spectra are tested using Edinburg FLS980 Steady State Transient Fluorescence Spectrometer with a detector of PMT R928 and a light source of 450 W ozone-free xenon lamp with excitation wavelength of λex=488 nm.\nUnder irradiation conditions, photosensitizer is excited to produce singlet oxygen ^1O2, and fluorescent probe SOSG reacts with ^1O2 to give endoperoxide with green fluorescence emission characteristic, with emission wavelength of 525 nm under excitation wavelength conditions of 488 nm. The reaction has a reaction rate of r.\nIn the present invention, through application of light and a magnetic field, the magnetic field effects (MFEs) is quantified by mfeR, the change rate of the reaction rate r, mfeR=(rB−r0)/r0×100%, where r0 is the reaction rate at a magnetic field strength of 0 mT and rB is the reaction rate at a magnetic field strength of B mT. Where the reaction rate (r) is proportional to the slope of the tangent of a curve (first derivative of the curve) of the emission intensity (I525 nm) versus time (t). Under magnetic field strengths of 0, 10, 35, 85, 180, 300 mT and from the time of starting to illuminate and place in magnetic field (the time recorded as 0), the first derivative of the I525 nm−t curve is 1, 1.05, 1.09, 0.99, 1.12, 1.14 (normalized)."}, "[2]": {"experiment": "Singlet oxygen quantum yield and lifetime (1270 nm phosphorescence in D2O) under magnetic field", "type": "physicochemical", "details": "for τΔ (lifetime of singlet oxygen): RB 10 μmol/L in D2O", "protocol": "(4) Singlet oxygen (^1O2), quantum yield (ΦΔ) and lifetime (τΔ) are measured by the following experiment. The phosphorescence of singlet oxygen (^1O2) generated at 1270 nm is determined in air saturated D2O solution of RB (10 μmol/L). The solution is excited at 561 nm.\nThe magnetic field effect MFs (ΦΔ,B) is calculated by the following formula: ΦΔ,B=ΦΔ,0×(IB/I0), where IB and I0 are peak areas of emission peaks at a magnetic field strength of B and without magnetic field strength, respectively.\nThe change rate of the magnetic field effect is:\nThe lifetime (τΔ) of singlet oxygen (^1O2) is affected by the magnetic field effect is as follows: […]"}, "HeLa cells": {"tested_on": "HeLa cells", "experiment": "H2DCFDA fluorescence imaging of intracellular oxidation in HeLa cells", "type": "cell-based", "details": "RB 30 μmol/L, FIG. 11", "protocol": "(1) HeLa cells are seeded on sterile glass coverslips and placed in DMEM (comprising FBS) plates for 12 h. Then appropriate amount of 30 μmol/L RB or 0.01 mol/L PBS buffer is added, respectively. After 24 h in dark, H2DCFDA (dichlorofluorescein diacetate, ≥97%, purchased from Sigma-Aldrich) is added to give final concentration of 10 μmol/L and cells are incubated for another 30 min, and then are washed 3 times with PBS buffer.\nSaid HeLa cells are placed under the magnetic field conditions of 0 mT, 250 mT, 800 mT, respectively, without irradiation or with 10 min light (561 nm, 5 mW·cm^−2). Fluorescence images are obtained using Nikon A1R-si laser scanning confocal microscopy (488 nm excitation, 515±15 nm received fluorescence), where H2DCFDA is the indicator that reacts with cellular singlet oxygen ^1O2 to increase fluorescence emission intensity (excitation wavelength is 504 nm, and emission wavelength is 529 nm).\nThe change rate of fluorescence intensity in Hela cells added with RB under the conditions of light and magnetic field at 0, 250 or 800 mT is shown in FIG. 12. The change rate of fluorescence intensity is (IB−I0)/I0×100%, IB is the fluorescence intensity at magnetic field strength of B, and I0 is the fluorescence intensity without magnetic field. In FIG. 12, ** is the statistical probability p<0.01; *** is p<0.005, and p<0.05 is considered significant."}}}
{"smiles": "O=C1OC2(c3cc(I)c(O)c(I)c3Oc3c2cc(I)c(O)c3I)c2c(Cl)c(Cl)c(Cl)c(Cl)c21", "note": "[RB, Rose Bengal]", "values": [{"measurement": "first derivative of the I525 nm−t curve (normalized)", "setting": "[1]; MF 0 mT", "value": 1}, {"measurement": "first derivative of the I525 nm−t curve (normalized)", "setting": "[1]; MF 10 mT", "value": 1.05}, {"measurement": "first derivative of the I525 nm−t curve (normalized)", "setting": "[1]; MF 35 mT", "value": 1.09}, {"measurement": "first derivative of the I525 nm−t curve (normalized)", "setting": "[1]; MF 85 mT", "value": 0.99}, {"measurement": "first derivative of the I525 nm−t curve (normalized)", "setting": "[1]; MF 180 mT", "value": 1.12}, {"measurement": "first derivative of the I525 nm−t curve (normalized)", "setting": "[1]; MF 300 mT", "value": 1.14}, {"measurement": "mfer (change rate of reaction rate r of SOSG with 1O2)", "setting": "[1]; peak, MF 250 mT vs 0 mT, FIG. 1", "value": 25, "unit": "%"}, {"measurement": "τΔ (lifetime of singlet oxygen)", "setting": "[2]; MF 0 mT", "value": "66.7 ± 2.8", "unit": "μs"}, {"measurement": "τΔ (lifetime of singlet oxygen)", "setting": "[2]; MF 30 mT", "value": "65.8 ± 7.1", "unit": "μs"}, {"measurement": "τΔ (lifetime of singlet oxygen)", "setting": "[2]; MF 50 mT", "value": "60.7 ± 2.0", "unit": "μs"}, {"measurement": "τΔ (lifetime of singlet oxygen)", "setting": "[2]; MF 90 mT", "value": "62.6 ± 3.2", "unit": "μs"}, {"measurement": "τΔ (lifetime of singlet oxygen)", "setting": "[2]; MF 120 mT", "value": "69.5 ± 4.7", "unit": "μs"}, {"measurement": "τΔ (lifetime of singlet oxygen)", "setting": "[2]; MF 150 mT", "value": "62.8 ± 0.8", "unit": "μs"}, {"measurement": "τΔ (lifetime of singlet oxygen)", "setting": "[2]; MF 200 mT", "value": "65.4 ± 4.5", "unit": "μs"}, {"measurement": "rate of change of luminescence quantum yield of 1O2", "setting": "[2]; RB 10 μmol/L in air saturated D2O, excited at 561 nm, with increasing magnetic field, FIG. 21", "value": "−5% to +10%"}, {"measurement": "fluorescence intensity of HeLa cells (H2DCFDA)", "setting": "HeLa cells; absence of magnetic field, vs PBS", "value": "stronger than that with PBS"}, {"measurement": "fluorescence intensity of HeLa cells (H2DCFDA)", "setting": "HeLa cells; irradiation 561 nm 10 min and 250 mT", "value": "stronger than those under the absence of magnetic field and the magnetic field of 800 mT"}]}
